ChEMBL document CHEMBL1201862, “PubChem BioAssay data set” (2004)
Active and inactive are the calls of the source.

Experiments:
[1] = HEp-2 cell cytotoxicity, dose response, cytotoxicity control for RSV inhibitor project, HTS (AID 2410); format: functional; conditions: human respiratory syncytial virus
[2] = target: T1, Endoribonuclease toxin MazF (Escherichia coli K-12, UniProt P0AE70); assay: MazF toxin RNase activators, dose response, biochemical, fluorescence, single-stranded RNA substrate, uHTS hits (AID 588481); format: functional
T1 sequence (P0AE70 whole entry): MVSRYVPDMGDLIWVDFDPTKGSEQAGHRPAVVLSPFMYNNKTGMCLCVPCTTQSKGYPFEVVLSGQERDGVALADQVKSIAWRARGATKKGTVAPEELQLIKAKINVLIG

[3] = target: T2, Estrogen receptor (Homo sapiens, UniProt P03372);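 also: potency for inhibiting coactivator peptide recruitment to the receptor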
T2 sequence (P03372 whole entry): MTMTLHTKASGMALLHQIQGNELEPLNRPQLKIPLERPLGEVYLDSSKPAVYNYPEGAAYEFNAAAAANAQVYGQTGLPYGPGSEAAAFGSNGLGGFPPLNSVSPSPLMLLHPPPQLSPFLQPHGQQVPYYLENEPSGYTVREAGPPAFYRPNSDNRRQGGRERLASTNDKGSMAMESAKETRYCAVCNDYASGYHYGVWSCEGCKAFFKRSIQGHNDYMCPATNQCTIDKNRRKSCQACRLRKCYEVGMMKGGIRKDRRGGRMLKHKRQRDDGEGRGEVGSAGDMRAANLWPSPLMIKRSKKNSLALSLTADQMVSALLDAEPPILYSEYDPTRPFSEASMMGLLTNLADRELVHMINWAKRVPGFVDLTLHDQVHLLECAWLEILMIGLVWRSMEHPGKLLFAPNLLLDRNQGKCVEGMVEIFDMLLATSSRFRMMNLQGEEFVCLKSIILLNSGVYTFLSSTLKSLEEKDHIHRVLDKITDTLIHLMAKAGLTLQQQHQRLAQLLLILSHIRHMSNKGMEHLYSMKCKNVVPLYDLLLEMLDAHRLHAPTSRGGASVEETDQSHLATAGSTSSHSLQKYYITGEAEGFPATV

[4] = HEK293T cell cytotoxicity, dose response, cytotoxicity control for HIV Vif inhibitor project, cherry-picks (AID 652208); format: functional, cell-based
[5] = target: T1, Endoribonuclease toxin MazF; assay: fluorescent RNA oligo signal without MazF, dose response, counter-screen for MazEF activator project, biochemical, fluorescence, single-stranded RNase substrate (AID 588502); format: functional
[6] = inhibitors of Bluetongue virus cytopathic effect, confirmation, arbovirus, BSR cells (AID 1250); format: functional;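 also: protection from viral cytopathic effect measured as cell viability by ATP luminescence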
[7] = Luminescence Cell-Based Dose Confirmation HTS to Identify Inhibitors of Polyadenylation.; format: functional
[8] = target: T3, Mannose-6-phosphate isomerase (Homo sapiens, UniProt P34949); assay: human PMI inhibitors, high substrate, primary screen, biochemical, fluorescence intensity, high mannose 6-phosphate (AID 1220)
T3 sequence (P34949 whole entry): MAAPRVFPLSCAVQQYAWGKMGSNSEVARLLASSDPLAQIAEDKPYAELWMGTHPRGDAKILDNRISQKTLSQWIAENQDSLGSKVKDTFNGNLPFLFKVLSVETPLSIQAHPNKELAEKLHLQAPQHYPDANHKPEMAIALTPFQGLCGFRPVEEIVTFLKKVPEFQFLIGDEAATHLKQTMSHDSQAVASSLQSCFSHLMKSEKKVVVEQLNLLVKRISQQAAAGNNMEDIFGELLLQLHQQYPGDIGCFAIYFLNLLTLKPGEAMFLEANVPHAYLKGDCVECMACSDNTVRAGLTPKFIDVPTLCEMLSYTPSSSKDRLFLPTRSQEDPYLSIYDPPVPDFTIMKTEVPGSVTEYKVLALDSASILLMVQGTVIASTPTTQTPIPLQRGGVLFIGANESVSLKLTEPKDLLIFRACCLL

[9] = target: Genome polyprotein (dengue virus type 2, UniProt P29990); assay: Dengue-2 NS5 methyltransferase inhibitors, primary screen, biochemical, confirmation dose response (AID 588689); format: functional
Chain of Genome polyprotein (P29990 2492-3391 limits assumed): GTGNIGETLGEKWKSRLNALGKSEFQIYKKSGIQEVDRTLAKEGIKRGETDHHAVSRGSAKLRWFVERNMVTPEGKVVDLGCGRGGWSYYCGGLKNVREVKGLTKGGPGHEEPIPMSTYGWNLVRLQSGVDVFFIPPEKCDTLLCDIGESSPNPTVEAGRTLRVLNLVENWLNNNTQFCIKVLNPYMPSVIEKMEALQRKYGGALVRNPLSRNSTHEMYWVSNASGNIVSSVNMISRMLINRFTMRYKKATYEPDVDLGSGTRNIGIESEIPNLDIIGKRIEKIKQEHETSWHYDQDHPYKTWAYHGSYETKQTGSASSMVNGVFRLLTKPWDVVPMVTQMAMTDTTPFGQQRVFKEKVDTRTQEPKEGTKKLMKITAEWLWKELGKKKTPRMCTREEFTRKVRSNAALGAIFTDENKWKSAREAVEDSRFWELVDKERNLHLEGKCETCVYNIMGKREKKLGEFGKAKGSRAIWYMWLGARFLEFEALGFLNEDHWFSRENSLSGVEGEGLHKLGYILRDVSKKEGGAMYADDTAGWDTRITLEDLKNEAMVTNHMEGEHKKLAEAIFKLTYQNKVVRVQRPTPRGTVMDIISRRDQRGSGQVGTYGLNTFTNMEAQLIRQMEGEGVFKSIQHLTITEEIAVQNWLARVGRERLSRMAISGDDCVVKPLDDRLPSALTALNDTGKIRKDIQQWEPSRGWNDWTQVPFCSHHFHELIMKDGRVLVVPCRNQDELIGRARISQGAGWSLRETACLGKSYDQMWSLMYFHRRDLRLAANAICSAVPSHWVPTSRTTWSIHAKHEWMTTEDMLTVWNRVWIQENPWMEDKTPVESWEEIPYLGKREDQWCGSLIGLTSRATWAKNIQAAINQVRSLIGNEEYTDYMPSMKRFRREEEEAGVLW

[10] = target: T3, Mannose-6-phosphate isomerase; assay: inhibitors of human PMI, primary screen, biochemical, fluorescence intensity, coupled assay (AID 1209)
[11] = M. tuberculosis H37Rv growth inhibitors, H37Rv strain (AID 1626); format: functional
[12] = target: T4, Protein skinhead-1 (Caenorhabditis elegans, UniProt P34707); format: functional
T4 sequence (P34707 whole entry): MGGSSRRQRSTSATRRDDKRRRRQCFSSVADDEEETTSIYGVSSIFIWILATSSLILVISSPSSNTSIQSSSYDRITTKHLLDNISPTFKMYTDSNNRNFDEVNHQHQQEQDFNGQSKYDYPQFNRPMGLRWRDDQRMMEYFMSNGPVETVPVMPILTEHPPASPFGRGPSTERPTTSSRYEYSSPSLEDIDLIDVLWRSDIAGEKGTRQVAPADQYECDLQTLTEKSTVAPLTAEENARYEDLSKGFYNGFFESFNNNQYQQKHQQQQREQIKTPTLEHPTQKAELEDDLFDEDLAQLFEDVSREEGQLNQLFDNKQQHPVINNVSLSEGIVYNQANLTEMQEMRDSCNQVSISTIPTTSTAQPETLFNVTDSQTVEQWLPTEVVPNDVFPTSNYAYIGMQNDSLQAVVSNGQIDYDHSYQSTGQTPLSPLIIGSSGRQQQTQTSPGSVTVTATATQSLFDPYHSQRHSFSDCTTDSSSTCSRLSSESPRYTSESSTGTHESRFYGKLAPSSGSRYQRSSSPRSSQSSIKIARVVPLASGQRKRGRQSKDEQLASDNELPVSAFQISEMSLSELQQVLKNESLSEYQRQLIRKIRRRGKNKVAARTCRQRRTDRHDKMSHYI

[13] = target: Neuropeptide Y receptor type 1 (Homo sapiens, UniProt P25929); format: functional;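 also: HEK293 cells with a CNG channel challenged with NPY then isoproterenol; potency as antagonist that reverses NPY suppression of cAMP signal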
Chain of Neuropeptide Y receptor type 1 (P25929 whole entry): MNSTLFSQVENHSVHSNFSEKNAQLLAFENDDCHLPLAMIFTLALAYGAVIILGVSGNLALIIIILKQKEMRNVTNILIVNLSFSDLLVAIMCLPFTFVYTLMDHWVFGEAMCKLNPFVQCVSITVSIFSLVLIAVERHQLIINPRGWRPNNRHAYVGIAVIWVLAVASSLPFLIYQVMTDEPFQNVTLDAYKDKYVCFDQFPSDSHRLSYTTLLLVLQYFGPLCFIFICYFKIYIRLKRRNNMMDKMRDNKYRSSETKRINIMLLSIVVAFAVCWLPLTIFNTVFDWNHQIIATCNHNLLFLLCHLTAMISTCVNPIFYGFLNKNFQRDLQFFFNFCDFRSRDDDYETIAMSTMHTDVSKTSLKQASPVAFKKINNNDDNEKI

[14] = target: Neuropeptide Y receptor type 2 (Homo sapiens, UniProt P49146); format: functional, cell-based;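 also: HEK293 cells expressing the receptor and a CNG channel; stimulus was NPY near EC95 followed by isoproterenol to raise cAMP; antagonist potency measured as restoring cAMP signal that NPY suppresses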
Chain of Neuropeptide Y receptor type 2 (P49146 whole entry): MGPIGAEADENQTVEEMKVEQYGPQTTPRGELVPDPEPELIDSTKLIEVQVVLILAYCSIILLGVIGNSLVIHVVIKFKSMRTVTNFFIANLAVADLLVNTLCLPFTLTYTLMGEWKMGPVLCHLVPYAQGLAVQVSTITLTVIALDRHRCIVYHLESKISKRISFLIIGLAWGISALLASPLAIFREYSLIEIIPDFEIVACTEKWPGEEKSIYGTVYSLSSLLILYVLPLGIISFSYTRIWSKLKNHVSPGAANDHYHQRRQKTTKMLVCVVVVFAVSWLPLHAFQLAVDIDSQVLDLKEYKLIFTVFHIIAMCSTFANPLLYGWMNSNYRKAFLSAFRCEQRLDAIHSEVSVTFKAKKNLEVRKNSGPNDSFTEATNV

[15] = target: T5, Leucine aminopeptidase (Plasmodium falciparum 3D7, UniProt Q8IL11); assay: P. falciparum M17LAP inhibitors, primary screen, biochemical, fluorogenic H-Leu-NHMec substrate, 1536-well (AID 1619); format: functional
T5 sequence (Q8IL11 whole entry): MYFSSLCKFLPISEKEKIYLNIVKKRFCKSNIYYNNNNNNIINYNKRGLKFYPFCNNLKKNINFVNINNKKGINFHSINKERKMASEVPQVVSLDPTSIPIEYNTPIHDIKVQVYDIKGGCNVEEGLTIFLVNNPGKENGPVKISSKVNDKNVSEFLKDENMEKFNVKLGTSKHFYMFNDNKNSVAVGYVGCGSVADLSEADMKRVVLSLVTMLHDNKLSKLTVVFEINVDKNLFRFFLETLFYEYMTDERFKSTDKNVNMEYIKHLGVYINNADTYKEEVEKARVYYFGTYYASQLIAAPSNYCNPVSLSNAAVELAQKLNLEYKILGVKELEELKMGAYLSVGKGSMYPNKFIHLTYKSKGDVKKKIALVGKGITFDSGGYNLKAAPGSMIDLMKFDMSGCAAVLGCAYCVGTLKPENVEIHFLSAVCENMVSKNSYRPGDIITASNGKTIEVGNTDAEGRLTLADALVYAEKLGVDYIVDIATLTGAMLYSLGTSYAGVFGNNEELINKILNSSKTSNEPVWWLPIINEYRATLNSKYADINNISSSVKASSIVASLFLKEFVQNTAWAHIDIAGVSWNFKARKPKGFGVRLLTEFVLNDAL

[16] = target: Aspartyl aminopeptidase (Plasmodium falciparum 3D7, UniProt Q8I2J3); assay: Counterscreen for inhibitors of M1 and M17 aminopeptidases: QFRET-based biochemical high throughput dose response assay for inhibitors of the Plasmodium falciparum M18 Aspartyl Aminopeptidase (PFM18AAP). [Related PubChem assays: 1619 (Screening assay (M17LAP inhibitors).), 1445 (Screening assay (M1AAP inhibitors).)]
Chain of Aspartyl aminopeptidase (Q8I2J3 whole entry): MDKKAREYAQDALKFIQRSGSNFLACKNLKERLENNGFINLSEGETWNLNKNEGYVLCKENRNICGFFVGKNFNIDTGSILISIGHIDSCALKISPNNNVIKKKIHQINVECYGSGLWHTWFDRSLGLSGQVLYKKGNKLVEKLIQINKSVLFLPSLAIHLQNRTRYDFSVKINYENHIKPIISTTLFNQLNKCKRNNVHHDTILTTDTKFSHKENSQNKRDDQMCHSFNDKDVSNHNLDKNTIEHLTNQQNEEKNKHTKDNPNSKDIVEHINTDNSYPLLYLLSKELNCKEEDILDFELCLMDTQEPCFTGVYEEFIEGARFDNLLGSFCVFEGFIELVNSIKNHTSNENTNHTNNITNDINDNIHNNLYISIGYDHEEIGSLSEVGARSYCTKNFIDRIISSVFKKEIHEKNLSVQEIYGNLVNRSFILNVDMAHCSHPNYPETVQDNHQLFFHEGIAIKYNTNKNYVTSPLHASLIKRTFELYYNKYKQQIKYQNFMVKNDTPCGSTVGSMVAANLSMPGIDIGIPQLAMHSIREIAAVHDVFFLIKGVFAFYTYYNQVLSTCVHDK

[17] = target: Procathepsin L (Homo sapiens, UniProt P07711); assay: cathepsin L inhibitors, dose response, counter-screen for M1/M17 aminopeptidase inhibitor project, biochemical, QFRET, 1536-well (AID 2214)
Chain of Procathepsin L (P07711 whole entry): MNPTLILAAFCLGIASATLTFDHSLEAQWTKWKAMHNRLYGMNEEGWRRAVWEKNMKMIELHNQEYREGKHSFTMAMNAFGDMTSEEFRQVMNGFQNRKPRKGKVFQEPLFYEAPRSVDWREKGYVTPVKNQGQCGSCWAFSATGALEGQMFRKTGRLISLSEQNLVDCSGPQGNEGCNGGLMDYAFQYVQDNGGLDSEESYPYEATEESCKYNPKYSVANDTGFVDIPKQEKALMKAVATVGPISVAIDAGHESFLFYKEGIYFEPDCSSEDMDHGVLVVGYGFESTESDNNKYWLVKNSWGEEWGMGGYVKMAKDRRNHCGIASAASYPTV

[18] = target: Sphingosine 1-phosphate receptor 1 (Homo sapiens, UniProt P21453); format: functional;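 also: Tango beta-arrestin reporter U2OS cells stimulated with S1P near its EC80; inhibitor potency meaning antagonism of receptor activation by the natural agonist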
[19] = target: Cytochrome P450 2D6 (Homo sapiens, UniProt P10635);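 also: CYP2D6 member of a cytochrome P450 panel assay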
Chain of Cytochrome P450 2D6 (P10635 whole entry): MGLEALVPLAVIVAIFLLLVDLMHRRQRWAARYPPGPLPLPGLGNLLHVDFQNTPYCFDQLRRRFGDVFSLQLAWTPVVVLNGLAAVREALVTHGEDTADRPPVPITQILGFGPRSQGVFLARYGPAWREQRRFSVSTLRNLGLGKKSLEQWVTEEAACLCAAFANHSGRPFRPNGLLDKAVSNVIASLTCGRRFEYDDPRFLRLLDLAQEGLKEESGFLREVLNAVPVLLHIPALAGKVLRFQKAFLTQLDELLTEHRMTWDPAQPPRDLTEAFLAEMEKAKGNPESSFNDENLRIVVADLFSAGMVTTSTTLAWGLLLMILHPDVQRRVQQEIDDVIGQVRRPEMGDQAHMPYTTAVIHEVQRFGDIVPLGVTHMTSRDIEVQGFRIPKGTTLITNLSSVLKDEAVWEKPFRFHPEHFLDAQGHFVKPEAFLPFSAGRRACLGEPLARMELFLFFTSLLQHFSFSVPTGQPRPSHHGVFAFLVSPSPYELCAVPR

[20] = cytotoxicity toward DRD oncogenic fibroblasts, dose response, cell-based, non-viral oncogenic, luminescence (AID 1934); format: functional; conditions: Homo sapiens
[21] = system: BJ; assay: cells; format: functional, cell-based; conditions: Homo sapiens
[22] = cytotoxicity in HEK-293T cells, dose response, cytotoxicity control for TCR NF-kB inhibitor project, luminescence, T-cell screen hits (AID 489026); format: functional, cell-based;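 also: cells exposed to compound about 14 hours before the viability readout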
[23] = target: T6, Sphingosine 1-phosphate receptor 4 (Homo sapiens, UniProt O95977); assay: Late stage fluorescence dose response cell-based screening assay for antagonists of the Sphingosine 1-Phosphate Receptor 4 (S1P4). [Related pubchem assays: 1524 (Confirmation screen (S1P4 antagonists).), 1510 (Primary screen (S1P4 antagonists).), 1853 (Summary AID (S1P4 antagonists).), 1692 (Dose response screen (S1P4 antagonists).)]; format: functional
T6 sequence (O95977 whole entry): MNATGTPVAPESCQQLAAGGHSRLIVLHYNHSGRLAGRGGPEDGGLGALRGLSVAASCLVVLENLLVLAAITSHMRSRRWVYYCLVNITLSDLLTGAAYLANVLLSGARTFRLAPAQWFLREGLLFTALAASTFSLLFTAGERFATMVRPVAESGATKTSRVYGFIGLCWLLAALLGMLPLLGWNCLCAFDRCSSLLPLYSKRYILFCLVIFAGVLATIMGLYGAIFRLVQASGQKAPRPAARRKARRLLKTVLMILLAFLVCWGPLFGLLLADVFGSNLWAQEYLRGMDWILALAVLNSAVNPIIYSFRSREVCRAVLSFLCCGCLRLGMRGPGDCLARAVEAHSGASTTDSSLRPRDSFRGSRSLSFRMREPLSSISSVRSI

[24] = system: INS1; assay: beta cell apoptosis inhibitors, cytokine rescue, dose response, luminescence, retest (AID 449756); format: functional, cell-based; conditions: Rattus norvegicus;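 also: cell death triggered by IL-1 beta plus TNF-alpha plus IFN-gamma mixture; protective hits raise ATP signal compared with cytokine alone wells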
[25] = target: T6, Sphingosine 1-phosphate receptor 4; assay: Fluorescence dose response cell-based high throughput screening assay for antagonists of the Sphingosine 1-Phosphate Receptor 4 (S1P4). [Related pubchem assays: 1524 (Confirmation in triplicates.), 1510 (Primary screen.)]; format: functional
[26] = target: T7, Mucolipin-3 (Homo sapiens, UniProt Q8TDD5); assay: Fluorescence counterscreen assay for […] agonists: dose response cell-based high-throughput screening assay to identify agonists of the transient receptor potential channel ML3 (TRPML3). [Related pubchem assays: 1424, 1448 ]; format: functional
T7 sequence (Q8TDD5 whole entry): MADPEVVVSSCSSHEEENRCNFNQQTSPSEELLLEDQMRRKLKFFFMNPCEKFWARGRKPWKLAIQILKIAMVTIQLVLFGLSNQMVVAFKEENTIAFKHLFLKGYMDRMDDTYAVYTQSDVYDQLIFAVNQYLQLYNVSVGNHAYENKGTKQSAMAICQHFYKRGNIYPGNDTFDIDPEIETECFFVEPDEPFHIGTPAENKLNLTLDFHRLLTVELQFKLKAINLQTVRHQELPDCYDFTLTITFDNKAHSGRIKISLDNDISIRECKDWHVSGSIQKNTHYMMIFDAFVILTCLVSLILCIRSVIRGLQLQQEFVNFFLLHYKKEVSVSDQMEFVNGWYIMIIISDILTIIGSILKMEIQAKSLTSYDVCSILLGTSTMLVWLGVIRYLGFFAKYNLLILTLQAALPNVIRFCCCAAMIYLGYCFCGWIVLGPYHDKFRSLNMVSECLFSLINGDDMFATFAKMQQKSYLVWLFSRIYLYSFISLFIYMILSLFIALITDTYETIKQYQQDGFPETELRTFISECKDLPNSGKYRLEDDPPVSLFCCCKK

[27] = system: BJ; assay: cytotoxicity toward Ras-transformed BJeLR fibroblasts, dose response, cell-based, alamar blue fluorescence, cherrypicked samples (AID 2631); format: functional; conditions: Homo sapiens;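 also: confirmatory dose-response assay in RAS-dependent BJ fibroblasts engineered with TERT, LT and ST, with cytotoxicity read by fluorescence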
[28] = system: BJ; assay: cytotoxicity toward BJ-TERT-LT-ST fibroblasts, dose response, cell-based, RAS-independent, luminescence (AID 1935); format: functional; conditions: Homo sapiens;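 also: BJ fibroblasts immortalized with TERT plus LT and ST oncogenes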
[29] = target: Ion channel NompC (Danio rerio, UniProt Q7T1G6); assay: Dose response cell-based high-throughput screening assay for agonists of the transient receptor potential channel N1 (TRPN1). [Related pubchem assays (depositor defined):AID1424, AID1448]; format: functional
Chain of Ion channel NompC (Q7T1G6 whole entry): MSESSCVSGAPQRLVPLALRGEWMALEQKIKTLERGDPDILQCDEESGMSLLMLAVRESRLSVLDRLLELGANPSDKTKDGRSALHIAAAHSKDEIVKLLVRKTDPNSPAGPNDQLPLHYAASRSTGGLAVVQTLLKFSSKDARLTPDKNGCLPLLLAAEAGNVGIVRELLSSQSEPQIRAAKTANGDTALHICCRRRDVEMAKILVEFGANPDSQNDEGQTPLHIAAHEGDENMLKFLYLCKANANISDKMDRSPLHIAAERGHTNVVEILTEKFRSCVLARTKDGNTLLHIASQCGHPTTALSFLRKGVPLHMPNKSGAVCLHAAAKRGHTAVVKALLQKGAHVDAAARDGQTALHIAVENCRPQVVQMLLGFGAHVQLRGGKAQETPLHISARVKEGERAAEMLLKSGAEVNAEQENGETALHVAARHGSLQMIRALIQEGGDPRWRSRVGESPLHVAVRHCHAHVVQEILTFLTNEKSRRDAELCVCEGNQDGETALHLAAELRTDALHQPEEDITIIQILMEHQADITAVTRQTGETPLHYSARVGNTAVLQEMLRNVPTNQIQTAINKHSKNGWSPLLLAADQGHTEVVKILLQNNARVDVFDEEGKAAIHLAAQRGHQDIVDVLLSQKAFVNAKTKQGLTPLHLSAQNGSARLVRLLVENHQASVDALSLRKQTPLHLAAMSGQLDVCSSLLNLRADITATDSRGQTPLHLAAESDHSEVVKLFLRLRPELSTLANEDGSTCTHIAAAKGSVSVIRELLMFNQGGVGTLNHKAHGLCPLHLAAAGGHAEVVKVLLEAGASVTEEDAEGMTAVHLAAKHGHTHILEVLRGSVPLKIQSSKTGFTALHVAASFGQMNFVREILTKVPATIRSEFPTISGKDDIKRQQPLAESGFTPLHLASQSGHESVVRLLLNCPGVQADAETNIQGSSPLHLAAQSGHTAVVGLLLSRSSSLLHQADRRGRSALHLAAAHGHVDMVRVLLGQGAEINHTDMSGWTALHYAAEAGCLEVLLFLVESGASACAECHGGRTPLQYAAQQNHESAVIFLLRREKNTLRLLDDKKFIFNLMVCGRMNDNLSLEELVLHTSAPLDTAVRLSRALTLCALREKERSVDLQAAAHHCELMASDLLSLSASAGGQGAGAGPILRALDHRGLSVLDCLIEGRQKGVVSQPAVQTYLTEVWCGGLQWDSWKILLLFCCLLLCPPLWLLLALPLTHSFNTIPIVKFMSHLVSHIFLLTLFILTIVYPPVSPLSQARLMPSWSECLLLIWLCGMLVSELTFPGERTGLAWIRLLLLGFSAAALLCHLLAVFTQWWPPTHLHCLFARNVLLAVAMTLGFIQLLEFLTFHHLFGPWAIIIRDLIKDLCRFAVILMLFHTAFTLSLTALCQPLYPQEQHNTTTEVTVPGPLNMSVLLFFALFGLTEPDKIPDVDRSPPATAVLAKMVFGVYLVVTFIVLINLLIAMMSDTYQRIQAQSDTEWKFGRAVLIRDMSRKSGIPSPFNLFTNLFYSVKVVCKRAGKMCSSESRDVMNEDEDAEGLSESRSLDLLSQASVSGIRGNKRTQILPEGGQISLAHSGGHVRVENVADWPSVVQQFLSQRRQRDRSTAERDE

[30] = system: BJ; assay: cytotoxicity toward BJ-TERT fibroblasts, dose response, cell-based, RAS-independent, luminescence (AID 1933); format: functional; conditions: Homo sapiens
[31] = target: Mothers against decapentaplegic homolog 3 (Homo sapiens, UniProt P84022); assay: SMAD3 transcription factor inhibitors, dose response (AID 715); format: functional

O=C(Nc1ccc2oc(-c3ccc4ccccc4c3)nc2c1)c1cccs1
CC50 [1]: 18.6 µM (active)
EC50 [2]: > 99 µM (inactive)
IC50 [3]: 27.7 µM (active)
AC50 [4]: 31 µM (active)
EC50 [5]: > 99 µM (inactive)

CC1CCc2c(sc(NC(=O)c3ccccc3C(=O)O)c2C#N)C1 (stereo unspecified)
IC50 [6]: 24 µM (active)

COc1ccc(-c2cccc(NC(=O)COc3ccc(Cl)cc3)c2)nn1
EC50 [7]: > 120 µM (not active)

Cc1cc(C(=O)N/N=C/c2ccc(O)c(O)c2O)c(C)n1-c1ccccc1
IC50 [8]: > 50 µM (not active)
IC50 [9]: 41.9 µM (active)
IC50 [10]: > 50 µM (not active)

Cn1nc(C(F)(F)F)c(-c2ccc(Br)cc2)c1NC(=O)c1cccnc1
IC50 [11]: > 100 µM (active)

Clc1ccc(-c2nnn(Cc3nc4ccccc4s3)n2)cc1
IC50 [12]: > 100 µM (inactive)
IC50 [13]: 13.4 µM (not active)
IC50 [14]: 15.1 µM (not active)

CCOc1ccc(NC(=O)Nc2ccc3nccnc3c2)cc1
IC50 [15]: 5.45 µM (active)
IC50 [16]: > 73.5 µM (not active)
IC50 [17]: > 59.6 µM (not active)

C=C1C(=O)C=C2CN(C(=O)c3ccccc3)[C@@](Cc3ccc(F)cc3)(C(=O)OC)[C@@H]12
IC50 [18]: 12 µM (not active)
AC50 [19]: 39.8 µM (inconclusive)
EC50 [20]: 0.662 µM (active)
EC50 [21]: 8.08 µM (inconclusive)
IC50 [22]: > 80 µM (inactive)
IC50 [23]: 3.7 µM (not active)
AC50 [24]: 1.58 µM (active)
IC50 [25]: 0.473 µM (active)
EC50 [26]: 1.12 µM (active)
EC50 [27]: < 0.104 µM (active)
EC50 [28]: 0.554 µM (inconclusive)
EC50 [29]: > 1.11 µM (inactive)
EC50 [30]: 0.333 µM (active)

CCCc1cc(=O)[nH]c(N=C(NC(=O)C(C)N2C(=O)c3ccccc3C2=O)Nc2ccccc2)n1 (stereo unspecified)
IC50 [31]: 8.78 µM (active)
